# Assays:
# [1] = system: Trichophyton rubrum, T. interdigitale, Microsporum fulvum and C. albicans; test: Inhibition assays, summary across the range of fungal pathogens; type: cell-based; conditions: summary of Table 3
# Method: (§1) The inhibitory effects of the plant defensins on the growth of Trichophyton rubrum, T. interdigitale, Microsporum fulvum and C. albicans (obtained from the National Mycology Reference Centre, South Australia Pathology at the Women's and Children's Hospital, Adelaide, Australia) are measured essentially as described by Broekaert et al. (1990) FEMS Microbiol Lett 69:55-59. Spores of T. rubrum, T. interdigitale and M. fulvum are isolated from sporulating fungus growing on 1⁄2 strength Sabouraud dextrose agar (SDA). Spores were removed from the plates by the addition of 1⁄2 strength potato dextrose broth (PDB). C. albicans cells are grown in Yeast Peptone Broth (YPD) for 16 h. Spore and cell concentrations are measured using a hemocytometer. Antifungal assays are conducted in 96 well microtitre plates essentially as herein described. Wells are loaded with 20 μm L of filter sterilized (0.22 μm syringe filter, Millipore) defensin (10× stock for each final concentration) or water and 80 μm L of 5×10^4 spores/mL (T. rubrum, T. interdigitale, M. fulvum) or 5,000 cells/mL (C. albicans) in 1⁄2 strength PDB. The plates are incubated at 30° C. Fungal growth is assayed by measuring optical density at 595 nm ([…]) using a microtitre plate reader (SpectraMax Pro M2; Molecular Devices. Growth is allowed to proceed until the optical density (OD) of the fungus in the absence of any test defensin reached an OD of 0.2. Each test is performed in duplicate.
# [2] = system: T. interdigitale; test: Antifungal growth inhibition assay in 96 well microtitre plates (A595); type: cell-based, Trichophyton interdigitale
# Method: as §1
# [3] = Penetration through human nails (nail adapter, wetted cotton bud receptor, RP-HPLC); type: in vitro ADME
# Method: Penetration of NaD1 through human nails was measured according to the method of Hui et al. (2002) J Pharm Sci 91(1):189-195. Human toenails were obtained from ScienceCare (USA) and washed with phosphate buffered saline (details, PBS) before being placed on a kimwipe that had been soaked in PBS for 3 h to rehydrate the nail. […]
# The cotton bud in contact with the underside of the nail was removed after 24 h and every 24 h following. Protein that had passed through the nail was recovered from the cotton bud by washing twice with 500 μL of 0.1% v/v trifluoroacetic acid. Recovered protein was quantified using RP-HPLC.
# [4] = system: Microsporum fulvum; test: Antifungal growth inhibition assay in 96 well microtitre plates (A595); type: cell-based
# Method: as §1
# [5] = system: Trichophyton rubrum; test: as above; type: cell-based
# Method: as §1
# [6] = system: Human monocytic lymphoma (U937) cells; type: cell-based
# Method: Human monocytic lymphoma (U937) cells are cultured in RPMI-1640 medium. All culture media are supplemented with 5-10% v/v fetal calf serum, 100 U/ml of penicillin, and 100 μg/ml of streptomycin. Cell lines are cultured at 37° C. in a humidified atmosphere containing 5% v/v CO2. Adherent cell lines are detached from the flask by adding a mixture containing 0.25% v/v trypsin and […] EDTA. A flow cytometry-based propidium iodide (PI) uptake assay is performed to analyze the ability of plant defensins to permeabilize U937 cells (essentially as described in Poon et al, 2014). Briefly, cells are suspended to 1×10^6 cells/ml in 0.1% v/v BSA/RPMI-1640 and incubated with plant defensins (10 μM) at 37° C. for 30 min Samples are added to PBS containing a final concentration of 1 μg/ml PI and placed on ice. Samples are then analyzed immediately using the BD FACSCanto II Flow Cytometer and BD FACSDiva software v6.1.1. The resultant flow cytometry data is analyzed using FlowJo software v8.8.6. Cells are gated appropriately based on forward scatter and side scatter and cell permeabilization is defined by PI-positive staining.
# [7] = system: C. albicans; test: Antifungal growth inhibition assay in 96 well microtitre plates (A595); type: cell-based, Candida albicans
# Method: as §1
# [8] = system: Escherichia coli; test: Inhibition of the growth of Escherichia coli; type: cell-based; conditions: 0.1625 μM to 10 μM, 18 hours at 37° C., OD595
# Method: A single E. coli colony was used to inoculate 5 ml of Luria-Bertani media and grown overnight at 37° C. The following day, the optical density of the culture was measured and the E. coli diluted to an optical density at 600 nm (OD600) of 0.01 in Mueller-Hinton Broth. Diluted E. coli were added to 96-well plates with defensins at concentrations of 10 μM, 5 μM, 2.5 μM, 1.25 μM, 0.625 μM, 0.3125 μM or 0.1625 μM. Plates were read at OD595 to obtain time zero data points. Plates were incubated at 37° C. for 18 hours before reading again at OD595 to assess the amount of E. coli growth.
# [9] = system: clinical isolates of T. rubrum; test: Cell survival assay for clinical isolates of T. rubrum (plating after incubation); type: cell-based, Trichophyton rubrum; conditions: incubated with 100 µg/mL HXL008 for 72 h, plated on Sabouraud dextrose agar, 5 days at 30° C.
# Method: After incubation for 72 h, the media from wells containing clinical isolates of T. rubrum incubated with 100 […] HXL008 was plated onto fresh Sabouraud dextrose agar. Plates were incubated at 30° C. for 5 days to allow colonies to develop before being photographed.
# [10] = system: Trichophyton rubrum; test: Inhibition of the growth of Trichophyton rubrum over 28 days; type: cell-based
# Method: The inhibitory effect of HXL008 on the growth of Trichophyton rubrum (obtained from the National Mycology Reference Centre, South Australia Pathology at the Women's and Children's Hospital, Adelaide, Australia) was monitored over 28 days.
# Spores of T. rubrum, are isolated from sporulating fungus growing on ½ strength Sabouraud dextrose agar. Spores are removed from the plates by the addition of ½ strength potato dextrose broth (PDB). Spore and cell concentrations are measured using a hemocytometer.
# Spores were diluted to a concentration of 5×10^4 spores/mL in ½ PBD (2 mL) containing 0, 10 or 50 μg/mL HXL008. Cultures are incubated at 30 C without shaking. After 24 h, 100 μL of each culture is extracted and plated onto ½ SDA plates. An additional 100 uL of ½ PDB is then added containing either 0, 20 or 100 μg of HXL008. SDA plates are then incubated at 30 C for 5 days. This process is repeated every 24 h for 28 days. After 15 days, the culture containing no HXL008 becomes too thick to pipette and is no longer used in the assay.
substance,measurement,setting,value
"HXL004: Class I plant defensin from Nicotiana benthamiana, SEQ ID NO:7 (Table 1) (RTCESQSHRFKGLCFSRSNCASVCHTEGFNGGHCRGFRRRCFCTRHC; HXL004 Nicotiana benthamiana)",Antifungal activity across the range of fungal pathogens,[1],intermediate activity
same,IC50 against T. interdigitale,[2],19 µg/mL
same,Nail penetration,[3],able to penetrate nails faster and more effectively than the active ingredients of current topical onychomycosis therapies
same,IC50 against M. fulvum,[4],12 µg/mL
same,IC50 against T. rubrum,[5],27.5 µg/mL
same,Cells permeabilized (PI-positive),[6],13%
same,IC50 against C. albicans,[7],20 µg/mL
same,Inhibition of growth of E. coli,[8],inhibited the growth of E. coli in a concentration dependent manner
"HXL008: Class I plant defensin from Picramnia pentandra, SEQ ID NO:1 (KVCTKPSKFFKGLCGTDGACTTACRKEGLHSGYCQLKGFLNSVCVCRKHC; HXL008 Picramnia pentandra)",Surviving colonies on agar plates,[9],1-3 colonies
same,Antifungal activity across the range of fungal pathogens,[1],the most effective plant defensins across the range of fungal pathogens
same,IC50 against T. interdigitale,[2],3.5 µg/mL
same,Nail penetration,[3],able to penetrate nails faster and more effectively than the active ingredients of current topical onychomycosis therapies
same,IC50 against M. fulvum,[4],7 µg/mL
same,IC50 against T. rubrum,[5],3 µg/mL
same,Cells permeabilized (PI-positive),[6],less than 2%
same,IC50 against C. albicans,[7],20 µg/mL
same,Visible growth of T. rubrum in culture,"[10]; 10 μg/mL or 50 μg/mL, over the duration of the assay (28 days)",did not display any visible growth
same,T. rubrum cells killed,"[10]; 50 μg/mL, within 24 h",more than 80%
same,T. rubrum cells dead,[10]; after 20 days of treatment,more than 99.5%
same,Surviving colonies per plate,"[10]; after 20 days of treatment, 100 μL of culture plated",≤ 1 colony
same,Inhibition of growth of E. coli,[8],did not inhibit growth of E. coli at the concentrations tested
"HXL012: Class I plant defensin from Amaranthus retroflexus, SEQ ID NO:10 (RMCKAPSKLFRGMCGIRDSNCDSVCRAEGMAAGDCHGLRRRCICSRPC; HXL012 Amaranthus retroflexus)",Antifungal activity across the range of fungal pathogens,[1],intermediate activity
same,IC50 against T. interdigitale,[2],2 µg/mL
same,Nail penetration,[3],did not penetrate the nail
same,IC50 against M. fulvum,[4],18 µg/mL
same,IC50 against T. rubrum,[5],2 µg/mL
same,Cells permeabilized (PI-positive),[6],less than 2%
same,IC50 against C. albicans,[7],42 µg/mL
"LL37: human antimicrobial peptide used as a control (LLGDFFRKSKEKIGKEFKRIVQRIKDFLRNLVPRTES; Antibacterial peptide LL-37; UniProt P49913 134-170, looked up) [reference compound]",Inhibition of growth of E. coli,[8],inhibited the growth of E. coli in a concentration dependent manner
"NaD1: Solanaceous Class II plant defensin from Nicotiana alata, SEQ ID NO:18 (RECKTESNTFPGICITKPPCRKACISEKFTDGHCSKILRRCLCTKPC; NaD1 Nicotiana alata)",IC50 against T. interdigitale,[2],10 µg/mL
same,Nail penetration,[3],able to penetrate nails faster and more effectively than the active ingredients of current topical onychomycosis therapies
same,IC50 against M. fulvum,[4],5.3 µg/mL
same,IC50 against T. rubrum,[5],8 µg/mL
same,Cells permeabilized (PI-positive),[6],33%
same,IC50 against C. albicans,[7],20 µg/mL
same,Inhibition of growth of E. coli,[8],did not inhibit growth of E. coli at the concentrations tested
